In article PMC8509398, “Proteolytic Cleavage of Bioactive Peptides and Protease-Activated Receptors in Acute and Post-Colitis” (International Journal of Molecular Sciences, 2021):
Residues, ends and D or L forms follow the SMILES beside them.

Assays:
[1] = target: T1, trypsin-3 (Homo sapiens, UniProt P35030); assay: Cleavage of peptides by purified trypsin-3, MALDI-TOF/TOF; settings: 25 nM protease, 10 µM peptide; for Incubation time at which the first cleavage or decrease of the full-length peptide was observed, trypsin-3: 37 °C, time points 2, 5, 10, 30 min; for TL disarming (D), Trypsin-3 / TL unmasking (U), Trypsin-3: PAR-based peptides, 37 °C, 2, 5, 10 and 30 min
T1 sequence (P35030 1-304): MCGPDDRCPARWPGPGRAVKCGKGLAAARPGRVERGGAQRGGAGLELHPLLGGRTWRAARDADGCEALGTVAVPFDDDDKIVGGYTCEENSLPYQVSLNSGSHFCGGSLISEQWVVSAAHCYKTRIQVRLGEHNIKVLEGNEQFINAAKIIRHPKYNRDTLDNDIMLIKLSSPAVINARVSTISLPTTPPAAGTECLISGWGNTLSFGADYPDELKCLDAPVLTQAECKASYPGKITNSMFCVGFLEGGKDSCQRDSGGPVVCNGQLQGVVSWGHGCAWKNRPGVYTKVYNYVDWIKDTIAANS
Text: Trypsin-like proteases included in the experiments are trypsin-1, -2 and -3, tryptase (Enzo LifeSciences), thrombin (Sigma-Aldrich) and cathepsin G (Sigma-Aldrich). Trypsin-1, -2 and -3 were produced as described by Koistinen et al. and Wu et al.. Two elastase-like enzymes, neutrophil elastase (Enzo LifeSciences, Farmingdale, NY, USA) and pancreatic elastase I (Sigma-Aldrich) were included as well. All enzymes were from human origin except for pancreatic elastase from porcine pancreas.
Reaction mixtures with purified enzymes were compiled in an identical way. Each mixture contained an equimolar concentration of protease (25 nM based on) and 10 µM peptide of interest and was incubated for 2, 5, 10 and 30 min at 37 °C. Substance P was added as the standard peptide except for the reaction mixtures with substance P or bradykinin as the peptide of interest, where angiotensin II (Bachem) was added.
(§1) The TFA mixtures were thawed on ice and desalted using C18 zip-tips (Merck Millipore®, Burlington, MA, USA) with a capacity of 5 µg protein. Retained peptide fragments were eluted directly on the MALDI target plate. Next, 0.5 µL of a 2.5 mg/mL α-cyano-4-hydroxycinnamic acid (Sigma-Aldrich) matrix solution (in 70% acetonitrile, 0.1% TFA) was spotted on top of the sample. A 6-Peptide mixture Kit (AB Sciex, Framingham, MA, USA) containing bradykinin (2–9), angiotensin I, glu1-fibrinopeptide, ACTH (1–17), ACTH (18–39) and ACTH (7–38) was diluted with matrix and spotted on the plate as well.
MS and MS/MS data for peptide fragment identification were obtained with a MALDI-TOF/TOF instrument (4800 MALDI TOF/TOF™, Applied Biosystems, Waltham, MA, USA) and instrument parameters were set using 4000 Series Explorer™ software. MS spectra were recorded in positive reflector mode in a mass range from 500 to 4000 Da and laser intensity of 4500–4800 Hz. The spectra were calibrated using the calibration mixture mentioned above to a mass tolerance of 0.1 Da. MS/MS spectra were recorded with high-energy collision-induced dissociation and the laser intensity was increased by 10%. Precursor mass m/z 1570.65 (Glu1-Fibrinopeptide from the calibration mixture) was used to calibrate the MS/MS spectra to a mass tolerance of 0.1 Da.
MS and MS/MS spectra were processed using DataExplorer™ software and the obtained output files were uploaded in the MS-PEP data analyzer (https://bioit.shinyapps.io/PARs/ accessed 10/08/2020) for peptide fragment identification. Identified fragments were confirmed using the MS/MS spectra and mMass 5.5.0 by Martin Strohalm. The relative intensities of the fragments were calculated as the ratio of the intensity of the peak of interest to the intensity of the peak of the standard peptide.

[2] = Cleavage of peptides by colonic tissue lysates from TNBS-induced colitis rat model, MALDI-TOF/TOF; settings: 10 µM peptide, 20 µg/mL protein, 37 °C; for Number of colonic samples in which the TL-sequence unmasking cleavage was observed, acute colitis: acute colitis lysates; for Number of colonic samples in which the TL-sequence unmasking cleavage was observed, post-colitis: post-colitis lysates; for Processing by colonic samples, in words (comparison of control, post-colitis and acute colitis): rat colonic lysates, up to 30 min, n = 8 per group
Method: Adult male Sprague–Dawley rats (200–225 g; Charles River, Wilmington, MA, USA) were used in a previously described TNBS-induced acute and post-inflammatory model. Rats were housed at constant room temperature (22 ± 2 °C) and humidity (60%) with two rats per cage, unlimited access to water and food and on a 12 h–12 h light/dark cycle.
After an overnight fast, TNBS colitis was induced using a TNBS-enema (4 mg TNBS; Sigma-Aldrich, 50% ethanol) as described previously. Rats were anesthetized with a mixture of ketamine (35 mg/kg i.p.; Ketalar®, Pfizer, New York City, NY, USA) and xylazine (5 mg/kg i.p.; Rompun®, Bayer, Leverkusen, Germany), and the TNBS-enema or 0.9% saline was administered intrarectally using a flexible catheter (18 G, length 4.5 cm) to colitis and control rats, respectively. Animals were kept in a tail-up position for 1 min and were then allowed to recover in their cages with free access to water and food. […] For the post-colitis group (n = 8), a colonoscopy was performed starting from day 10 and repeated every 4 days until complete mucosal healing was observed. The rats were then sacrificed as well and colonic samples were taken.
Colonic lysates were prepared for studying their effects on cleavage patterns of added peptides with a MALDI-TOF/TOF assay. After sacrifice, a sample of approximately 50 mg of distal colon was taken from each rat. The colonic samples were immediately rinsed with Krebs solution, snap-frozen and stored at −80 °C until further processing. Sample preparation started with crushing the colonic samples on dry ice. Liquid nitrogen was used to prevent the loss of enzymatic activity due to temperature increases and the colon powders were stored at −80 °C for further experiments. […] After centrifugation, the supernatants were collected and used immediately to prepare the reaction mixtures, measure proteolytic activities with fluorogenic substrates and determine the protein content with a Bradford assay.
Colonic lysate was added to a peptide of interest to obtain the reaction mixtures with the colonic samples. Lysate and peptide were diluted so each mixture contained 10 µM peptide of interest and 20 µg/mL protein originating from the colonic tissue. These peptide and protein concentrations were based on research from Loew et al. and O’ Donoghue et al.. The mixtures were incubated at 37 °C for several incubation periods between 5 and 30 min. Afterward, the fragmentation reaction was stopped by adding trifluoroacetic acid (TFA; Alfa Aesar™, ThermoFisher, Waltham, MA, USA) to a final concentration of 2% and standard peptide (substance P, bradykinin or PAR3-based peptide) was added in a final concentration of 10 µM. Standard peptides were selected based on the mass of the peptides of interest. For each sample/peptide combination, a starting point was included as well. Here, TFA was added immediately after mixing the reaction constituents. Samples were stored at −80 °C for further MALDI-TOF/TOF experiments.
as §1
MS and MS/MS data for peptide fragment identification were obtained with a MALDI-TOF/TOF instrument (4800 MALDI TOF/TOF™, Applied Biosystems, Waltham, MA, USA) and instrument parameters were set using 4000 Series Explorer™ software. MS spectra were recorded in positive reflector mode in a mass range from 500 to 4000 Da and laser intensity of 4500–4800 Hz.

[3] = n = 8, MALDI-TOF/TOF, PAR1-based after 30 min
[4] = rat colonic lysate, 5-30 min, stopped with 2% TFA, MALDI-TOF/TOF relative intensity vs standard peptide, n = 8 animals

SMILES | Incubation time at which the first cleavage or decrease of the full-length peptide was observed, trypsin-3 [1] | TL disarming (D), Trypsin-3 [1] | TL unmasking (U), Trypsin-3 [1] | Number of colonic samples in which the TL-sequence unmasking cleavage was observed, acute colitis [2, 3] | Number of colonic samples in which the TL-sequence unmasking cleavage was observed, control ([2]; control lysates, n = 8, MALDI-TOF/TOF, PAR1-based after 30 min) | Number of colonic samples in which the TL-sequence unmasking cleavage was observed, post-colitis [2, 3] | Processing by colonic samples, in words (comparison of control, post-colitis and acute colitis) ([2]; MALDI-TOF/TOF) | Incubation time after which processing was significant (decrease of full-length peptide or increase of fragment), acute colitis samples ([2]; rat colonic lysate, acute TNBS colitis, 5-30 min, stopped with 2% TFA, MALDI-TOF/TOF relative intensity vs standard peptide, n = 8 animals) | Incubation time after which processing was significant (decrease of full-length peptide or increase of fragment), control samples ([2]; rat colonic lysate, control, 5-30 min, stopped with 2% TFA, MALDI-TOF/TOF relative intensity vs standard peptide, n = 8 animals) | Incubation time after which processing was significant (decrease of full-length peptide or increase of fragment), post-colitis samples [2, 4]
CC[C@H](C)[C@H](NC(=O)[C@H](CC(C)C)NC(=O)[C@H](CO)NC(=O)[C@H](CCCNC(=N)N)NC(=O)CNC(=O)[C@H](CCCCN)NC(=O)[C@H](CO)NC(=O)[C@H](CO)NC(=O)[C@H](CCCNC(=N)N)NC(=O)[C@H](CC(N)=O)NC(=O)[C@@H](NC(=O)CNC(=O)[C@H](CCC(N)=O)NC(=O)[C@@H](NC(=O)[C@@H](N)[C@@H](C)O)[C@@H](C)CC)[C@@H](C)O)C(=O)NCC(=O)N[C@@H](CCCCN)C(=O)N[C@H](C(=O)N[C@@H](CC(=O)O)C(=O)NCC(=O)N[C@H](C(=O)N[C@@H](CO)C(=O)N[C@@H](Cc1c[nH]cn1)C(=O)N[C@H](C(N)=O)C(C)C)[C@@H](C)O)C(C)C [PAR2-based] (H-TIQGTNRSSKGRSLIGKVDGTSHV-NH2) | > 30 min | − | − | four out of eight | two out of eight | three out of eight | no differences |  |  | 
CC[C@H](C)[C@H](NC(=O)[C@@H]1CCCN1C(=O)[C@H](CC(C)C)NC(=O)[C@@H](NC(=O)[C@@H]1CCCN1C(=O)[C@H](CCCCN)NC(=O)[C@H](C)NC(=O)[C@H](CC(C)C)NC(=O)[C@H](CC(N)=O)NC(=O)[C@H](CC(N)=O)NC(=O)[C@@H](NC(=O)[C@H](CC(=O)O)NC(=O)[C@H](CC(N)=O)NC(=O)[C@H](CCC(=O)O)NC(=O)[C@H](CCSC)NC(=O)CN)[C@@H](C)O)[C@@H](C)O)C(=O)N[C@@H](CCCCN)C(=O)N[C@H](C(=O)N[C@@H](Cc1ccccc1)C(=O)N[C@@H](CCCNC(=N)N)C(=O)NCC(=O)N[C@@H](C)C(=O)N1CCC[C@H]1C(=O)N1CCC[C@H]1C(=O)N[C@@H](CC(N)=O)C(=O)N[C@@H](CO)C(=O)N[C@@H](Cc1ccccc1)C(=O)N[C@@H](CCC(=O)O)C(N)=O)[C@@H](C)O [PAR3-based] (H-GMENDTNNLAKPTLPIKTFRGAPPNSFE-NH2) |  | + (processing after 10 or 30 min) | − |  |  |  | cleaved slowly | 30 min | No C- or N-terminal fragments could be detected | trend towards an increase of the C-terminal fragment
CC[C@H](C)[C@H](NC(=O)[C@H](CO)NC(=O)[C@@H]1CCCN1C(=O)[C@@H](NC(=O)[C@H](CO)NC(=O)[C@H](CC(=O)O)NC(=O)[C@H](CC(=O)O)NC(=O)CNC(=O)CNC(=O)CNC(=O)[C@@H](NC(=O)[C@H](CO)NC(=O)CNC(=O)[C@H](CO)NC(=O)[C@H](CCC(=O)O)NC(=O)[C@H](CC(=O)O)NC(=O)[C@H](Cc1ccc(O)cc1)NC(=O)[C@@H](NC(=O)[C@H](CO)NC(=O)[C@@H]1CCCN1C(=O)[C@@H](NC(=O)[C@H](CCC(N)=O)NC(=O)[C@@H](NC(=O)CNC(=O)CN)[C@@H](C)O)[C@@H](C)O)C(C)C)[C@@H](C)O)[C@@H](C)O)C(=O)N[C@@H](CC(C)C)C(=O)N1CCC[C@H]1C(=O)N[C@@H](C)C(=O)N1CCC[C@H]1C(=O)N[C@@H](CCCNC(=N)N)C(=O)NCC(=O)N[C@@H](Cc1ccc(O)cc1)C(=O)N1CCC[C@H]1C(=O)NCC(=O)N[C@@H](CCC(N)=O)C(=O)N[C@H](C(=O)N[C@@H](CS)C(=O)N[C@@H](C)C(=O)N[C@@H](CC(N)=O)C(=O)N[C@@H](CC(=O)O)C(N)=O)C(C)C [PAR4-based] (H-GGTQTPSVYDESGSTGGGDDSTPSILPAPRGYPGQVCAND-NH2) | 2 min | − | +++ (ultrafast processing within 2 min) | five out of eight |  | two out of eight |  |  |  | not in post-colitis samples
